The values that follow come from PMC10779255, “Novel Hydroxamic Acids Containing Aryl-Substituted 1,2,4- or 1,3,4-Oxadiazole Backbones and an Investigation of Their Antibiotic Potentiation Activity” (International Journal of Molecular Sciences, 2023).

Series [1] is described as follows: Cytotoxicity assay (Alamar Blue). The series is classed as cell-based. The settings on record: human, HEK293 cells, 72 h exposure, mean ± SD, at least 3 independent experiments. On the procedure: (§1) The HEK293 cell line was obtained from the ECACC (European Collection of Authenticated Cell Cultures, cat. 85120602, Salisbury, UK). The cells were grown in monolayer culture in Dulbecco’s Modified Eagle Medium (DMEM) (PanEco, Moscow, Russia) supplemented with 2 mM of L-glutamine, 1% penicillin/streptomycin (Capricorn Scientific, Ebsdorfergrund, Germany), and 10% heat-inactivated fetal bovine serum (HyClone, Cytiva, Pasching, Austria) in a humidified atmosphere of 5% CO2 and at 37 °C (Binder, Tuttlingen, Germany). For analysis, the HEK293 cells were seeded into a 96-well plate (Corning Incorporated, Corning, NY, USA) in 100 μL of complete culture medium at a final concentration of 1 × 10^4 cells/well and cultured for 24 h for proper attachment. Subsequently, the medium was removed, and cells were exposed to the test inhibitor with different concentrations for 72 h in 100 μL of fresh complete culture medium. The sensitivity of the cells to test inhibitor molecules was detected using the vital dye Alamar Blue (Invitrogen, Carlsbad, CA, USA). The Alamar Blue assay was performed according to the procedure described by O’Brien et al.. After incubation with test inhibitor molecules, 10 μL of Alamar Blue reagent was added to each well, cell culture plates were returned to a humidified incubator, and the fluorescence was read after 3 h. The plates were exposed to an excitation wavelength of 545 nm, and the emission at 600 nm was measured with the CLARIOstar Plus (BMG Labtech, Ortenberg, Germany, Software Version 5.70 R2). To determine corresponding 50% cellular cytotoxicity (CC50) values, a four-parameter sigmoidal fit curve model (GraphPad Prism 8 software) was used to measure the data.
On the technique in general: Resazurin is reduced to fluorescent resorufin, in cell work by metabolically active cells.

A further series concerns P. aeruginosa ATCC 27853. The series can be described thus: MIC (broth microdilution) and growth curves of antibiotics in combination with 9c or 9d. The format is cell-based, Pseudomonas aeruginosa. The settings on record: for time of growth inhibition in combination with nalidixic acid: 50 μM of compound + 2.15 μM nalidixic acid, growth curves; for MIC: Pseudomonas aeruginosa, ATCC27853, read-out: MIC of nalidixic acid in the presence of compound; for P. aeruginosa ATCC 27853 growth in combination with antibiotics: with nalidixic acid or rifampicin. Here is the method: (§2) Escherichia coli strain MG1655 and Pseudomonas aeruginosa strain ATCC 27853 were obtained from the American Type Culture Collection (ATCC; Rockville, MD, USA). Subculturing and inoculum preparation were prepared according to the Clinical and Laboratory Standards Institute (CLSI) recommended method, M7-A9 [42], using MHA and MHB.
Minimum inhibitory concentrations (MICs) for rifampicin and nalidixic acid were determined via the modified broth microdilution method in triplicate according to CLSI guidelines M7-A9 and M100-A30 [43]. The antibiotics were serially diluted twofold in 100 μL of MHB. The bacteria inoculum was 100 μL of a 1.0 × 10^6 CFU/mL dilution in MHB. MICs for antibiotics in the presence of 9c or 9d were determined with the same method.
MIC endpoints were read after 24 h of incubation with an iMark microplate absorbance reader (Bio-Rad, Hercules, CA, USA). Growth curves of P. aeruginosa ATCC 27853 in the presence of rifampicin/nalidixic acid and 9c/9d were obtained using a multifunction microplate reader, SuperMax 3100 (ShanghaiFlash, Shanghai, China). Cells were grown in triplicate at 37 °C with aeration.
(In general: In broth dilution the organism is exposed to a series of concentrations in liquid medium.)

The subject of another series is E. coli MG1655. The series can be described thus: Growth curves of E. coli MG1655 with antibiotics, with or without LpxC inhibitors (antibiotic potentiation). As to Activity: key: active (1); inactive (0). The series is classed as cell-based, Escherichia coli. Conditions: for Activity: combined action together with the antibiotic, marking used for QSAR; for potentiation of kanamycin (sensitivity of cells): kanamycin 0.62 μM; for potentiation of kanamycin (sensitivity of cells) / potentiation of rifampicin (sensitivity of cells): inhibitor 50 or 100 µM; for potentiation of kanamycin (sensitivity of cells) / potentiating activity with nalidixic acid (growth inhibition) / potentiation of rifampicin (sensitivity of cells): OD600 growth curves; for potentiating activity with nalidixic acid (growth inhibition): nalidixic acid 17.22 μM, inhibitor 50–100 µM; for potentiation of rifampicin (sensitivity of cells): rifampicin 6.08 μM; for bacteriostatic effect in the first 10 h of incubation: with antibiotic, resumption of culture growth observed subsequently. On the procedure: as §2
Growth curves were obtained with a Bioscreen C automated growth analysis system. Cultures of E. coli MG1655 were grown overnight at 37 °C, diluted 1:100 in fresh medium, inoculated into honeycomb wells in triplicate, and grown at 37 °C with maximum shaking using the platform of the Bioscreen C instrument. […] OD600 values were recorded automatically at specified times, and the means of the triplicate cultures were plotted.

A further series relates to HEK293 cell line. The series can be described thus: Cytotoxicity assay (Alamar Blue). The format is cell-based. Conditions: HEK293 cells, 72 h exposure, mean ± SD, at least 3 independent experiments. Here is the method:
as §1

The next series concerns E. coli LpxC. Conditions: cited from earlier work.

SMILES strings stand for the structures. Entries after “also recorded” stand apart in the source; their conditions may differ.

In general, CC50 refers to the concentration at which the toxic effect on the cells reaches its halfway point. Read a high CC50 as better tolerance by the cells. For orientation: melting point means the temperature, or range, at which the solid turns liquid. As a reminder, the MIC is the smallest concentration in the dilution series that meets the test's criterion for growth inhibition. With `O=C(Cc1nc(-c2cc(F)c(F)c(F)c2)no1)NO` [Compound 9c], the melting point was 159.2 °C (dec.). In series [1], this compound showed a CC50 at 72 h of 189 ± 29.5 µM. Further, in the series with P. aeruginosa ATCC 27853 (25 μM of compound), the “decrease of MIC of rifampicin” value is “twofold” and the “reduction of MIC of nalidixic acid” value was “two times”. Moreover, in the series on P. aeruginosa ATCC 27853 (50 μM of compound), the “MIC of rifampicin in the presence of compound” value (from here on “MIC of rifampicin … of compound”) was 0.08 µM, the “reduction of MIC of nalidixic acid” value is listed as “four times” and the “reduction of MIC of rifampicin” value worked out at 64 times. Further, in the series on P. aeruginosa ATCC 27853, the “time of growth inhibition in combination with nalidixic acid” value is given as not above 14 h and the “P. aeruginosa ATCC 27853 growth in combination with antibiotics” value is listed as “significantly reduced; also recorded: best results”. Also, in the series on P. aeruginosa ATCC 27853 (100 μM of compound), the “MIC of rifampicin … of compound” value is 0.08 µM, the “decrease of MIC of nalidixic acid” value was “approximately eight-fold”, the “reduction of MIC of rifampicin” value is 64 times and the MIC worked out at 2.15 µM. For the same compound, in the series on E. coli MG1655, the Activity is 1, the “potentiation of kanamycin (sensitivity of cells)” value (“potentiation of kanamycin” for short) is reported as “greatest effectiveness; also recorded: greatest potentiating activity”, the “potentiating activity with nalidixic acid (growth inhibition)” value is “greatest potentiating activity” and the “potentiation of rifampicin (sensitivity of cells)” value (“potentiation of rifampicin” below) was “greatest effectiveness; also recorded: greatest potentiating activity”. In the series on E. coli MG1655, the “bacteriostatic effect in the first 10 h of incubation” value is “powerful bacteriostatic effect”.
Regarding `Cc1cccc(-c2noc(CC(=O)NO)n2)c1` [Compound 9d], the melting point was 165.4 °C (dec.). Moreover, it took 176 ± 17.8 µM to reach half-maximal cytotoxicity in series [1] (CC50 at 72 h). For the same compound, in the series with P. aeruginosa ATCC 27853 (25 μM of compound), the “decrease of MIC of rifampicin” value is “inactive” and the “reduction of MIC of nalidixic acid” value is recorded as “ineffective”. In the series with P. aeruginosa ATCC 27853 (50 μM of compound), the “MIC of rifampicin … of compound” value was found to be 0.08 µM, the “reduction of MIC of nalidixic acid” value was “four times” and the “reduction of MIC of rifampicin” value is 64 times. Further, in the series with P. aeruginosa ATCC 27853, the “time of growth inhibition in combination with nalidixic acid” value is given as not above 8 h and the “P. aeruginosa ATCC 27853 growth in combination with antibiotics” value was “significantly reduced; also recorded: best results”. Further, in the series with P. aeruginosa ATCC 27853 (100 μM of compound), the “MIC of rifampicin … of compound” value was found to be 0.08 µM, the “decrease of MIC of nalidixic acid” value is “approximately eight-fold”, the “reduction of MIC of rifampicin” value came to 64 times and the minimum inhibitory concentration (MIC) is 2.15 µM. Moreover, in the series on E. coli MG1655, the Activity was 1, the “potentiation of kanamycin” value was “greatest potentiating activity”, the “potentiating activity with nalidixic acid (growth inhibition)” value is listed as “greatest potentiating activity” and the “potentiation of rifampicin” value is reported as “greatest potentiating activity”. Further, the “bacteriostatic effect in the first 10 h of incubation” value in the series with E. coli MG1655 is “powerful bacteriostatic effect”.
`Cn1c(-c2nnc(C(=O)NO)o2)cc2ccccc21` [Compound 36]: the melting point is 198 °C (dec.). Further, the “CC50 (HEK293)” value in the series with HEK293 cell line is reported as “increased toxicity”. The compound further had a CC50 at 72 h in series [1] of 132 ± 23.7 µM. In addition, in the series on E. coli MG1655, the Activity came out at 1, the “potentiation of kanamycin” value is “completely ineffective”, the “potentiating activity with nalidixic acid (growth inhibition)” value was “inhibited bacterial growth less effectively; also recorded: weak potentiating activity” and the “potentiation of rifampicin” value is “completely ineffective”.
Take `CCCc1cc(C2=N[C@@H](C(=O)NO)CO2)cc(OC)c1OC` [L-161,240]: the “inhibition of E. coli LpxC” value in the series with E. coli LpxC is on record as “potent inhibitors”.
